The values that follow come from ChEMBL document CHEMBL1122707, “Pyrroloisoquinoline antidepressants. Potent, enantioselective inhibition of tetrabenazine-induced ptosis and neuronal uptake of norepinephrine, dopamine, and serotonin” (J Med Chem, 1984).

Assay [1] concerns Mus musculus. In words: Inhibition of tetrabenazine (TBZ)-induced ptosis in mice (administered ip). In kind it is functional.
Assay [2] relates to Mus musculus. In words: Inhibition of tetrabenazine (TBZ)-induced depression of motor activity (MA) in mice (administered ip). In kind it is functional.
Assay [3] addresses Norepinephrine transporter (Rattus norvegicus, UniProt Q9WTR4). In words: Inhibition of norepinephrine (NE) into rat brain synaptosomes. In kind it is functional, subcellular.
In assay [4] the target is Sodium-dependent dopamine transporter (Rattus norvegicus, UniProt P23977). In words: Inhibition of dopamine (DA) uptake into rat brain synaptosomes. In kind it is functional, subcellular.
The target of assay [5] is Sodium-dependent serotonin transporter (Rattus norvegicus, UniProt P31652). The assay can be described thus: Inhibition of serotonin (5-HT) uptake into rat brain synaptosomes. In kind it is subcellular.
In assay [6] the test system is Mus musculus. The assay can be described thus: Compound was evaluated for the inhibition of tetrabenazine (TBZ)-induced depression of motor activity (MA) in mice (administered sc). In kind it is functional.
Assay [7] has as its system Mus musculus. In words: Compound was evaluated for the inhibition of tetrabenazine (TBZ)-induced ptosis in mice (administered sc). In kind it is functional.
Where [8] appears, read: Mus musculus, ip, read-out: ED50.

Chain of Norepinephrine transporter (Q9WTR4 whole entry): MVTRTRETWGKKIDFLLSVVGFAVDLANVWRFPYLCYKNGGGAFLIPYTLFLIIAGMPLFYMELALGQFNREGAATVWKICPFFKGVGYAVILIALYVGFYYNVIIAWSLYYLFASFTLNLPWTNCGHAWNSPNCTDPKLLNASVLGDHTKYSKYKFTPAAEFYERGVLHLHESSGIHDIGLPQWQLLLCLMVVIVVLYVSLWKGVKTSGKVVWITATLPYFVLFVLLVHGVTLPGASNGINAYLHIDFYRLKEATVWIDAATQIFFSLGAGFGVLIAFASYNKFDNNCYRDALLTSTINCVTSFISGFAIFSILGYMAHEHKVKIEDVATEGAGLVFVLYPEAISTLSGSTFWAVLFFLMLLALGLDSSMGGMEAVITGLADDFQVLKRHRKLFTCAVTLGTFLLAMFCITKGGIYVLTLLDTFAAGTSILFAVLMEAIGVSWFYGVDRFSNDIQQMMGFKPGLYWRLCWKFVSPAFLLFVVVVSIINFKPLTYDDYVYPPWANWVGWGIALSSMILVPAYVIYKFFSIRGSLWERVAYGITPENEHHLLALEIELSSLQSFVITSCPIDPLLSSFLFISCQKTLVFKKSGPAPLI
Chain of Sodium-dependent dopamine transporter (P23977 whole entry): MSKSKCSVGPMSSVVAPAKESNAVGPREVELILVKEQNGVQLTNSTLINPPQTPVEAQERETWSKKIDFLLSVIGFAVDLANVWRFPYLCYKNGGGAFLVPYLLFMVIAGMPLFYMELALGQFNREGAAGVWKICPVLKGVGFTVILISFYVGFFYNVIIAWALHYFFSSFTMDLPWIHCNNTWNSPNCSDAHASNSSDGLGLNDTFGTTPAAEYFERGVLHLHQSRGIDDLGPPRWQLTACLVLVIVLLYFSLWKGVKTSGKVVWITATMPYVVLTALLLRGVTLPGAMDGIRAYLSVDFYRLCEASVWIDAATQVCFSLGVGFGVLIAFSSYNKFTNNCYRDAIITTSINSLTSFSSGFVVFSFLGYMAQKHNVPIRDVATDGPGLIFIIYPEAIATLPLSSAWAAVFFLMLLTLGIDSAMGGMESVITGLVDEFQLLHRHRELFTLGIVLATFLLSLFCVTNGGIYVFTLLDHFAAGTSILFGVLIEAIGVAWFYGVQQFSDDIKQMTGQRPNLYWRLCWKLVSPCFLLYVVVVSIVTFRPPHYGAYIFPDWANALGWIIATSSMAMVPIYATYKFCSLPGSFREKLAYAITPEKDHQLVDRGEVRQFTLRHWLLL
Chain of Sodium-dependent serotonin transporter (P31652 whole entry): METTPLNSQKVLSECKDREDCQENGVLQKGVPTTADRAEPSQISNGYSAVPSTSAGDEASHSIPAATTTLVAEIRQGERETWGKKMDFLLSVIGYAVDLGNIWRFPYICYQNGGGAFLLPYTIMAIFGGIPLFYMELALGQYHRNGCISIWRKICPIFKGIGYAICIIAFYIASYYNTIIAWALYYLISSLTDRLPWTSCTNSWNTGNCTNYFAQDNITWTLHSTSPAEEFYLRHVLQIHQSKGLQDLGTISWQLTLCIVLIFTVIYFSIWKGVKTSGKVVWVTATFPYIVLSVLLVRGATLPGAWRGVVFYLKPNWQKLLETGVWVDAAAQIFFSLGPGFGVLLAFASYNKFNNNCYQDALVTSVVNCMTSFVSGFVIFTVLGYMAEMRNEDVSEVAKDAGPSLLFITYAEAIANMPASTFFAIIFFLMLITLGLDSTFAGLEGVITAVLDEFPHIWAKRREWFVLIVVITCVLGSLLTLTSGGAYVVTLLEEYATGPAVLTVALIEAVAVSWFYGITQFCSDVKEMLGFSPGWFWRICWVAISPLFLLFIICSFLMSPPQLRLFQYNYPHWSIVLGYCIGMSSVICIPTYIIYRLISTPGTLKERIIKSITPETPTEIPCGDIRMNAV

On to `c1ccc([C@H]2CN3CCC[C@H]3c3ccccc32)cc1`, for which the ED50 (as a rule, the dose at which the effect has come halfway, by size or by number of responders) stood at 0.07 mg/kg with Mus musculus [1] (setting [8]) and 0.34 mg/kg in the assay on Mus musculus [2].
On to `Br.Oc1ccc(C2CN3CCC[C@H]3c3ccccc32)cc1` (stereo not given in full), for which the values for the ED50 with Mus musculus [1] (setting [8]) and in the assay on Mus musculus [2] were 0.09 mg/kg and 0.4 mg/kg, respectively. In addition, the Ki (as a rule, the dissociation constant of the complex between target and ligand, obtained from inhibition or displacement) in assay [3] was found to be 0.74 nM; in assay [4], 5.1 nM.
For `CN(C)CCCN1c2ccccc2CCc2ccccc21.Cl` [IMIPRAMINE HYDROCHLORIDE], the ED50 amounted to 0.98 mg/kg in the assay on Mus musculus [1] (setting [8]) and 0.58 mg/kg with Mus musculus [2].
Take `Br.Nc1ccc([C@H]2CN3CCC[C@H]3c3ccccc32)cc1`: the ED50 in the assay with Mus musculus [1] (setting [8]) was 0.02 mg/kg; in the assay on Mus musculus [2] it was over 1 mg/kg. Also, the Ki in assay [3] turned out to be 0.2 nM; in assay [4], 0.86 nM.
For the compound `Br.Clc1ccc(C2CN3CCC[C@H]3c3ccccc32)cc1` (stereo not given in full), the results for the ED50 in the assay on Mus musculus [1] (setting [8]) and with Mus musculus [2] were 0.34 mg/kg and 0.55 mg/kg, respectively.
With `Br.Nc1ccc([C@@H]2CN3CCC[C@H]3c3ccccc32)cc1`, the values for the ED50 in the assay with Mus musculus [1] (setting [8]) and in the assay on Mus musculus [2] were 0.4 mg/kg and 1.4 mg/kg, respectively. Also, the figures for the Ki in assay [3] and in assay [4] were 10 nM and 30 nM, respectively.
With `Br.c1ccc(C2CN3CCCCCC3c3ccccc32)cc1` (stereo not given), the ED50 was over 30 mg/kg with Mus musculus [1] (setting [8]) and 30 mg/kg in the assay with Mus musculus [2]. Besides, the Ki is 100 nM in assay [3], over 100 nM in assay [4] and over 5000 nM in assay [5].
Consider `c1ccc(C2CN3CCCCC3c3ccccc32)cc1` (stereo not given), for which the ED50 with Mus musculus [1] (setting [8]) and in the assay with Mus musculus [2] was over 30 mg/kg each time. In addition, the Ki in assay [3] was 20 nM; in assay [4], over 500 nM.
In the case of `CSc1ccc([C@@H]2CN3CCC[C@H]3c3ccccc32)cc1`, the ED50 in the assay with Mus musculus [1] (setting [8]) is 0.4 mg/kg; in the assay on Mus musculus [2], over 30 mg/kg. This compound also showed a Ki in assay [4] of 36.8 nM.
With `Br.COc1ccc(C2CN3CCC[C@H]3c3ccccc32)cc1` (stereo not given in full), the ED50 with Mus musculus [1] (setting [8]) turned out to be 0.03 mg/kg; with Mus musculus [2], 0.27 mg/kg. For the same compound, the inhibition constant Ki in assay [3] worked out at 0.79 nM; in assay [4], 5.2 nM.
With `Cl.FC(F)(F)c1cccc([C@H]2CN3CCC[C@H]3c3ccccc32)c1`, the results for the ED50 in the assay with Mus musculus [1] (setting [8]) and in the assay on Mus musculus [2] were 0.43 mg/kg and 1.2 mg/kg, respectively. In addition, the Ki in assay [3] is 0.95 nM; in assay [4] it was 54.3 nM.
For the compound `CNCCCN1c2ccccc2CCc2ccccc21.Cl` [DESIPRAMINE HYDROCHLORIDE], the ED50 came to 0.07 mg/kg in the assay on Mus musculus [6] and 0.05 mg/kg in the assay with Mus musculus [7].
For `Br.Oc1ccc(C2CN3CCC[C@H]3c3ccccc32)cc1O` (stereo not given in full), the ED50 with Mus musculus [1] (setting [8]) amounted to 0.11 mg/kg; in the assay with Mus musculus [2] it was 0.19 mg/kg. Further, the Ki is 0.81 nM in assay [3] and 10.1 nM in assay [4].
Turning to `Clc1ccc(C2CN3CCC[C@H]3c3ccccc32)cc1Cl` (stereo not given in full), the ED50 with Mus musculus [1] (setting [8]) amounted to 0.14 mg/kg; with Mus musculus [2], 0.39 mg/kg. For the same compound, the Ki in assay [3] is 0.68 nM; in assay [4] it was 0.99 nM.
Turning to `CN1CCN2c3ccccc3Cc3ccccc3C2C1` (stereo not given) [MIANSERIN], the ED50 in the assay with Mus musculus [1] (setting [8]) was 9.7 mg/kg; in the assay with Mus musculus [2], over 30 mg/kg. Also, the Ki in assay [3] was 26 nM; in assay [4], over 10000 nM.
Turning to `Br.COc1ccc(C2CN3CCC[C@H]3c3ccccc32)cc1OC` (stereo not given in full), the ED50 in the assay on Mus musculus [1] (setting [8]) is 0.11 mg/kg; with Mus musculus [2], 0.45 mg/kg. Further, the figures for the Ki in assay [3] and in assay [4] were 3.4 nM and 71.9 nM, respectively.
For `CN1Cc2c(N)cccc2C(c2ccccc2)C1` (stereo not given) [NOMIFENSINE], the Ki in assay [3] worked out at 3.8 nM. This lies in the single-digit nanomolar range.
Regarding `Cl.FC(F)(F)c1cccc([C@@H]2CN3CCC[C@H]3c3ccccc32)c1`, the ED50 in the assay with Mus musculus [1] (setting [8]) and in the assay on Mus musculus [2] was over 60 mg/kg in each case. In addition, the Ki in assay [3] was over 100 nM; in assay [4], over 1000 nM.
On to `Cl.c1ccc([C@H]2CN3CCC[C@H]3c3ccccc32)cc1` (stereo in doubt; (-)-5b), for which the values for the ED50 in the assay with Mus musculus [1] and in the assay with Mus musculus [2] were 8.3 mg/kg and over 30 mg/kg, respectively. In assay [4], the Ki is 1340 nM.
`Cl.c1ccc([C@H]2CN3CCC[C@H]3c3ccccc32)cc1` (stereo in doubt; 5a) yielded an ED50 in the assay with Mus musculus [1] of over 30 mg/kg. In addition, the Ki in assay [4] is 160 nM.
Take `Br.O=[N+]([O-])c1ccc(C2CN3CCC[C@H]3c3ccccc32)cc1` (stereo not given in full): the ED50 in the assay on Mus musculus [1] (setting [8]) is 0.14 mg/kg; in the assay on Mus musculus [2], 0.34 mg/kg. In addition, the Ki is 3.4 nM in assay [3] and 94.2 nM in assay [4].
Turning to `Cl.c1ccc(C2CN3CCC[C@H]3c3ccccc32)cc1` (single isomer, unassigned; (+)), the ED50 with Mus musculus [1] (setting [8]) was determined as 0.05 mg/kg; in the assay on Mus musculus [2] it was 0.59 mg/kg. The Ki in assay [4] came to 4.4 nM.
For the compound `COc1ccc2c(c1)CN(C)CC2c1ccc(Cl)c(Cl)c1` (stereo not given) [DICLOFENSINE], the Ki in assay [3] came to 4.4 nM; in assay [4], 14.6 nM.
